Laboratory results from PubChem BioAssay (NCI).
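Growth conditions: 96-well plates. Treatment: test compound, 48 hours, 5 concentrations. Analysis: linear interpolation between bracketing concentrations; unreached endpoints set to highest concentration. TGI marks complete inhibition of growth.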

How the values were obtained:
Experiment in all cases: NCI-60 cell line screen, 48 h
SK-MEL-5 melanoma = tested on: SK-MEL-5 melanoma
COLO 205 colon = tested on: COLO 205 colon
CAKI-1 renal = tested on: CAKI-1 renal
NCI-H226 lung = tested on: NCI-H226 lung
OVCAR-3 ovarian = tested on: OVCAR-3 ovarian
KM12 colon = tested on: KM12 colon
HL-60(TB) leukemia = tested on: HL-60(TB) leukemia
ACHN renal = tested on: ACHN renal
OVCAR-5 ovarian = tested on: OVCAR-5 ovarian
RXF 393 renal = tested on: RXF 393 renal
KM20L2 colon = tested on: KM20L2 colon
UO-31 renal = tested on: UO-31 renal
A498 renal = tested on: A498 renal
SK-OV-3 ovarian = tested on: SK-OV-3 ovarian
HCT-116 colon = tested on: HCT-116 colon
DMS 273 small cell lung = tested on: DMS 273 small cell lung
MOLT-4 leukemia = tested on: MOLT-4 leukemia
M14 melanoma = tested on: M14 melanoma
UACC-62 melanoma = tested on: UACC-62 melanoma
RPMI-8226 leukemia = tested on: RPMI-8226 leukemia
SF-295 CNS = tested on: SF-295 CNS
HOP-62 NSCLC = tested on: HOP-62 NSCLC
HOP-92 NSCLC = tested on: HOP-92 NSCLC
DMS 114 small cell lung = tested on: DMS 114 small cell lung
A549 NSCLC = tested on: A549 NSCLC
LXFL 529 NSCLC = tested on: LXFL 529 NSCLC
SF-539 CNS = tested on: SF-539 CNS
HCC-2998 colon = tested on: HCC-2998 colon
SN12C renal = tested on: SN12C renal
EKVX NSCLC = tested on: EKVX NSCLC
786-0 renal = tested on: 786-0 renal
SF-268 CNS = tested on: SF-268 CNS
HT29 colon = tested on: HT29 colon
NCI-H23 lung = tested on: NCI-H23 lung
SNB-19 CNS = tested on: SNB-19 CNS
NCI-H522 lung = tested on: NCI-H522 lung
SNB-75 CNS = tested on: SNB-75 CNS
M19-MEL melanoma = tested on: M19-MEL melanoma
U251 CNS = tested on: U251 CNS
SW-620 colon = tested on: SW-620 colon
NCI-H460 lung = tested on: NCI-H460 lung
TK-10 renal = tested on: TK-10 renal
DLD-1 colon = tested on: DLD-1 colon
CCRF-CEM leukemia = tested on: CCRF-CEM leukemia
LOX IMVI melanoma = tested on: LOX IMVI melanoma
IGROV1 ovarian = tested on: IGROV1 ovarian
UACC-257 melanoma = tested on: UACC-257 melanoma
K-562 leukemia = tested on: K-562 leukemia
OVCAR-8 ovarian = tested on: OVCAR-8 ovarian
SNB-78 CNS = tested on: SNB-78 CNS
SK-MEL-2 melanoma = tested on: SK-MEL-2 melanoma
MALME-3M melanoma = tested on: MALME-3M melanoma
SK-MEL-28 melanoma = tested on: SK-MEL-28 melanoma
SR leukemia = tested on: SR leukemia
BT-549 breast = tested on: BT-549 breast
MDA-N = tested on: MDA-N
DU-145 prostate = tested on: DU-145 prostate
MCF7 breast = tested on: MCF7 breast
PC-3 prostate = tested on: PC-3 prostate
HS 578T breast = tested on: HS 578T breast
MDA-MB-231 breast = tested on: MDA-MB-231 breast
HCT-15 colon = tested on: HCT-15 colon
MDA-MB-435 = tested on: MDA-MB-435
OVCAR-4 ovarian = tested on: OVCAR-4 ovarian
NCI/ADR-RES ovarian = tested on: NCI/ADR-RES ovarian
T-47D breast = tested on: T-47D breast
HOP-18 NSCLC = tested on: HOP-18 NSCLC

With CC1=CP(=O)(OC(C)C)CC(C)=C1Cl (configuration not stated) the TGI (SK-MEL-5 melanoma) was > 100 µM, the TGI (COLO 205 colon) was > 100 µM and the TGI (CAKI-1 renal) was > 100 µM. For the same compound, the TGI (NCI-H226 lung) was > 100 µM, the TGI (OVCAR-3 ovarian) was > 100 µM and the TGI (KM12 colon) was > 100 µM. For the same compound, the TGI (HL-60(TB) leukemia) was > 100 µM, the TGI (ACHN renal) was > 100 µM and the TGI (OVCAR-5 ovarian) was > 100 µM. The TGI (RXF 393 renal) was > 100 µM, the TGI (KM20L2 colon) was > 100 µM and the TGI (UO-31 renal) was > 100 µM. For the same compound, the TGI (A498 renal) was > 100 µM, the TGI (SK-OV-3 ovarian) was > 100 µM and the TGI (HCT-116 colon) was > 100 µM. For the same compound, the TGI (DMS 273 small cell lung) was > 100 µM, the TGI (MOLT-4 leukemia) was > 100 µM and the TGI (M14 melanoma) was > 100 µM. For the same compound, the TGI (UACC-62 melanoma) was > 100 µM, the TGI (RPMI-8226 leukemia) was > 100 µM and the TGI (SF-295 CNS) was > 100 µM. For the same compound, the TGI (HOP-62 NSCLC) was > 100 µM, the TGI (HOP-92 NSCLC) was > 100 µM and the TGI (DMS 114 small cell lung) was > 100 µM. For the same compound, the TGI (A549 NSCLC) was > 100 µM, the TGI (LXFL 529 NSCLC) was > 100 µM and the TGI (SF-539 CNS) was > 100 µM. The TGI (HCC-2998 colon) was > 100 µM, the TGI (SN12C renal) was > 100 µM and the TGI (EKVX NSCLC) was > 100 µM. For the same compound, the TGI (786-0 renal) was > 100 µM, the TGI (SF-268 CNS) was > 100 µM and the TGI (HT29 colon) was > 100 µM. For the same compound, the TGI (NCI-H23 lung) was > 100 µM, the TGI (SNB-19 CNS) was > 100 µM and the TGI (NCI-H522 lung) was > 100 µM. For the same compound, the TGI (SNB-75 CNS) was > 100 µM, the TGI (M19-MEL melanoma) was > 100 µM and the TGI (U251 CNS) was > 100 µM. For the same compound, the TGI (SW-620 colon) was > 100 µM, the TGI (NCI-H460 lung) was > 100 µM and the TGI (TK-10 renal) was > 100 µM. The TGI (DLD-1 colon) was > 100 µM, the TGI (CCRF-CEM leukemia) was > 100 µM and the TGI (LOX IMVI melanoma) was > 100 µM. For the same compound, the TGI (IGROV1 ovarian) was > 100 µM, the TGI (UACC-257 melanoma) was > 100 µM and the TGI (K-562 leukemia) was > 100 µM. For the same compound, the TGI (OVCAR-8 ovarian) was > 100 µM, the TGI (SNB-78 CNS) was > 100 µM and the TGI (SK-MEL-2 melanoma) was > 100 µM. For the same compound, the TGI (MALME-3M melanoma) was > 100 µM, the TGI (SK-MEL-28 melanoma) was > 100 µM and the TGI (SR leukemia) was > 100 µM.
With COC12COC(=O)C1C(c1ccc3c(c1)OCO3)c1cc3c(cc1O2)OCO3 (configuration not stated) the TGI (SK-MEL-5 melanoma) was > 100 µM, the TGI (COLO 205 colon) was > 93.8 µM and the TGI (CAKI-1 renal) was > 100 µM. The TGI (NCI-H226 lung) was > 100 µM, the TGI (OVCAR-3 ovarian) was > 100 µM and the TGI (KM12 colon) was > 100 µM. The TGI (HL-60(TB) leukemia) was > 52.3 µM, the TGI (BT-549 breast) was > 100 µM and the TGI (ACHN renal) was > 100 µM. The TGI (MDA-N) was 11.7 µM, the TGI (OVCAR-5 ovarian) was > 100 µM and the TGI (RXF 393 renal) was 44.8 µM. The TGI (UO-31 renal) was > 91.5 µM, the TGI (DU-145 prostate) was > 93.5 µM and the TGI (A498 renal) was > 91.8 µM. The TGI (SK-OV-3 ovarian) was > 75.8 µM, the TGI (HCT-116 colon) was > 100 µM and the TGI (MOLT-4 leukemia) was > 87.9 µM. For the same compound, the TGI (M14 melanoma) was > 100 µM, the TGI (MCF7 breast) was > 100 µM and the TGI (UACC-62 melanoma) was > 100 µM. The TGI (RPMI-8226 leukemia) was > 87.9 µM, the TGI (PC-3 prostate) was > 100 µM and the TGI (SF-295 CNS) was > 100 µM. For the same compound, the TGI (HOP-62 NSCLC) was 97.6 µM, the TGI (HOP-92 NSCLC) was > 100 µM and the TGI (HS 578T breast) was > 77.3 µM. The TGI (A549 NSCLC) was > 100 µM, the TGI (SF-539 CNS) was 43.8 µM and the TGI (HCC-2998 colon) was 53.1 µM. For the same compound, the TGI (SN12C renal) was > 100 µM, the TGI (EKVX NSCLC) was > 97.4 µM and the TGI (786-0 renal) was > 96.8 µM. For the same compound, the TGI (MDA-MB-231 breast) was > 100 µM, the TGI (SF-268 CNS) was > 100 µM and the TGI (HCT-15 colon) was > 100 µM. The TGI (HT29 colon) was > 91 µM, the TGI (NCI-H23 lung) was > 100 µM and the TGI (SNB-19 CNS) was > 100 µM. For the same compound, the TGI (NCI-H522 lung) was 39.7 µM, the TGI (SNB-75 CNS) was 59.2 µM and the TGI (U251 CNS) was > 100 µM. The TGI (SW-620 colon) was > 100 µM, the TGI (NCI-H460 lung) was > 100 µM and the TGI (TK-10 renal) was > 100 µM. For the same compound, the TGI (CCRF-CEM leukemia) was > 84.2 µM, the TGI (LOX IMVI melanoma) was > 100 µM and the TGI (MDA-MB-435) was 9.13 µM. The TGI (IGROV1 ovarian) was > 100 µM, the TGI (UACC-257 melanoma) was > 96.4 µM and the TGI (K-562 leukemia) was 40.2 µM. The TGI (OVCAR-4 ovarian) was > 100 µM, the TGI (OVCAR-8 ovarian) was > 100 µM and the TGI (NCI/ADR-RES ovarian) was > 74.1 µM. For the same compound, the TGI (SK-MEL-2 melanoma) was > 83.8 µM, the TGI (MALME-3M melanoma) was > 100 µM and the TGI (T-47D breast) was > 100 µM. The TGI (SK-MEL-28 melanoma) was > 100 µM and the TGI (SR leukemia) was > 100 µM.
With COc1ccc(-c2nnc(-c3nsc4ccccc34)o2)cc1 the TGI (SK-MEL-5 melanoma) was > 100 µM, the TGI (COLO 205 colon) was > 100 µM and the TGI (OVCAR-3 ovarian) was 92.6 µM. For the same compound, the TGI (KM12 colon) was > 100 µM, the TGI (ACHN renal) was > 100 µM and the TGI (OVCAR-5 ovarian) was > 100 µM. The TGI (RXF 393 renal) was 93.9 µM, the TGI (KM20L2 colon) was > 100 µM and the TGI (UO-31 renal) was > 100 µM. The TGI (HCT-116 colon) was > 100 µM, the TGI (DMS 273 small cell lung) was > 100 µM and the TGI (M14 melanoma) was > 100 µM. For the same compound, the TGI (HOP-18 NSCLC) was > 100 µM, the TGI (UACC-62 melanoma) was > 100 µM and the TGI (RPMI-8226 leukemia) was 71.4 µM. For the same compound, the TGI (HOP-62 NSCLC) was > 100 µM, the TGI (HOP-92 NSCLC) was > 100 µM and the TGI (DMS 114 small cell lung) was > 100 µM. The TGI (A549 NSCLC) was > 100 µM, the TGI (LXFL 529 NSCLC) was > 100 µM and the TGI (SF-539 CNS) was > 100 µM. For the same compound, the TGI (HCC-2998 colon) was > 100 µM, the TGI (SN12C renal) was > 100 µM and the TGI (EKVX NSCLC) was > 100 µM. The TGI (SF-268 CNS) was > 100 µM, the TGI (HCT-15 colon) was > 100 µM and the TGI (HT29 colon) was > 100 µM. For the same compound, the TGI (NCI-H23 lung) was > 100 µM, the TGI (SNB-19 CNS) was > 100 µM and the TGI (SNB-75 CNS) was 83.4 µM. The TGI (M19-MEL melanoma) was > 100 µM, the TGI (U251 CNS) was > 100 µM and the TGI (SW-620 colon) was > 100 µM. For the same compound, the TGI (NCI-H460 lung) was > 100 µM, the TGI (TK-10 renal) was > 100 µM and the TGI (LOX IMVI melanoma) was > 100 µM. The TGI (IGROV1 ovarian) was > 100 µM, the TGI (UACC-257 melanoma) was > 100 µM and the TGI (OVCAR-4 ovarian) was > 100 µM. The TGI (OVCAR-8 ovarian) was > 100 µM, the TGI (SNB-78 CNS) was > 100 µM and the TGI (SK-MEL-2 melanoma) was > 100 µM. The TGI (SK-MEL-28 melanoma) was > 100 µM and the TGI (SR leukemia) was > 100 µM.
